Results: patent US11964972B2, “Salt form” (CRT Pioneer Fund LP, priority 2018, dated 2024)
Like-named read-outs stand apart in the source and are kept apart here.

Columns and labels:
[1] = Recrystallisation studies (XRPD form classification); format: physicochemical
Experimental: The ditosylate salt of the compound of formula I (about 100 mg) was suspended in a designated volume of water miscible solvent at a given temperature, followed by the addition of one volume aliquots of pre-heated water until dissolution was achieved. The agitated mixtures were then cooled to 20° C. and agitated for about 16 hours. […] Solvent, solvent ratios and form classification of the isolated solids are detailed in Table 2.

MPS1 kinase = target: T1, MPS1 kinase (Homo sapiens, UniProt P33981); details: background statement; WO 2014/037750; cited from earlier work
T1 sequence (P33981 1-857): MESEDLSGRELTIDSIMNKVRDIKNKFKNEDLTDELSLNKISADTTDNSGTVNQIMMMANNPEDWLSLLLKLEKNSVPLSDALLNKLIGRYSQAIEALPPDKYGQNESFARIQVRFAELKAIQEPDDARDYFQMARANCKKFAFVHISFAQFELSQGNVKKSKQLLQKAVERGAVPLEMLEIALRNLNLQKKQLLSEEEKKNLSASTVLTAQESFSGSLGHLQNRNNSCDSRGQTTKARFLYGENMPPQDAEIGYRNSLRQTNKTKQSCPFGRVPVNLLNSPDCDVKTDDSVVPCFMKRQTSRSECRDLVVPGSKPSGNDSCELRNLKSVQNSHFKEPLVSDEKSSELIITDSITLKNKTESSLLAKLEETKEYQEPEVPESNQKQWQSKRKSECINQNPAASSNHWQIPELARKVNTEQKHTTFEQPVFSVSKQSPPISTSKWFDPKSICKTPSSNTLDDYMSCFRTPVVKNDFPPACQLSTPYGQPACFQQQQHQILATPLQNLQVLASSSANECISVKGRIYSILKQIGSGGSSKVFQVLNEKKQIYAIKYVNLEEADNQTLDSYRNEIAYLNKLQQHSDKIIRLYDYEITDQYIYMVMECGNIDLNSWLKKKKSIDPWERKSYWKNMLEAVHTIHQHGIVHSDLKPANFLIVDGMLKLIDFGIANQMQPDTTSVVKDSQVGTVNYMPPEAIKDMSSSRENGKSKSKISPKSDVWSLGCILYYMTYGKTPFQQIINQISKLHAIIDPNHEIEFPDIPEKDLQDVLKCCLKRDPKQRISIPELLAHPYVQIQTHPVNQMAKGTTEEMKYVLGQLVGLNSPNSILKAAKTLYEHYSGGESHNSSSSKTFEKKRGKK

[2] = 40° C. and 75% RH, 3 weeks
Experimental: The ditosylate salt of the compound of formula I was stored at 40° C. and 75% RH in loose screw top vials for 3 weeks.

[3] = Experimental: The ability of samples studied to absorb moisture (or not) over a set of well-determined humidity ranges was assessed. Sorption isotherms were obtained using a Hiden Isochema moisture sorption analyser (model IGAsorp), controlled by IGAsorp Systems Software V6.50.48. The sample was maintained at a constant temperature (25° C.) by the instrument controls. The humidity was controlled by mixing streams of dry and wet nitrogen, with a total flow of 250 ml·min^−1. The instrument was verified for relative humidity content by measuring three calibrated Rotronic salt solutions (10-50-88%). The weight change of the sample was monitored as a function of humidity by a microbalance (accuracy +/−0.005 mg). A defined amount of sample (typically 10-15 mg powder) was placed in a tared mesh stainless steel basket under ambient conditions. A full experimental cycle typically consisted of three scans (desorption, sorption, and desorption) at a constant temperature (25° C.) and 10% RH intervals over a 0-90% range (60 minutes for each humidity level). Solids are then held post cycle at 0% RH for 2-3 hours and tested by XRPD and the remainder held at 90% RH for 2-3 hours and re-tested by XRPD.
[4] = for Solubility: Form A, 37° C., minimum of 23 hours; for pH: pH of the aqueous mixture
Experimental: Crystalline ditosylate salt of the compound of formula I (about 40 mg, Form A) was suspended by gentle shaking in various aqueous buffers, biologically relevant media and formulation vehicles, 2×0.5 ml, at ambient temperature, ca 20° C. The mixtures were then heated to 37° C. with agitation for a minimum of 23 hours. The pH of the aqueous mixtures were also measured.
Table 1 presents the pH measurements and the solubility in various dissolution media.

[5] = for XRPD classification: 20/40° C. cycling
Experimental: The equilibration of a solid in various solvents with temperature modulation is an accepted approach to investigate the form stability of a solid and the generation of alternate modifications, polymorphs/solvates of the material.
The ditosylate of the compound of formula I, 35 mg, was subjected to equilibration in various solvents with agitation at 20° C. for 90 hours, 40° C. for 3 hours, cooled to 20° C. over 3 hours, then heated to 40° C. for 16 hours and cooled to 20° C. The solvents were initially charged to the salts in aliquots, 0.25 ml, until dissolution was observed or a volume of 2 ml achieved. The solids were isolated by filtration and dried in vacuo at 50° C. for about 16 hours and then analysed by XRPD.

[6] = from 0 to 90% RH, 25° C., Form A

CCOc1cc(-c2nncn2C)ccc1Nc1ncc2cc(C)nc(NCC(C)(C)C)c2n1.Cc1ccc(S(=O)(=O)O)cc1.Cc1ccc(S(=O)(=O)O)cc1 [ditosylate Form C, ditosylate salt of N2-(2-ethoxy-4-(4-methyl-4H-1,2,4-triazol-3-yl)phenyl)-6-methyl-N8-neopentylpyrido[3,4-d]pyrimidine-2,8-diamine Form C]
Form stability on thermal manipulation (XRPD, DSC) ([1]; solid isolated from exclusively ethanol, FIG. 5, FIG. 6): metastable form that could be thermally converted to ditosylate Form A

CCOc1cc(-c2nncn2C)ccc1Nc1ncc2cc(C)nc(NCC(C)(C)C)c2n1 [compound I, N2-(2-ethoxy-4-(4-methyl-4H-1,2,4-triazol-3-yl)phenyl)-6-methyl-N8-neopentylpyrido[3,4-d]pyrimidine-2,8-diamine]
MPS1 kinase inhibitory activity (MPS1 kinase): potent MPS1 kinase inhibitory activity

CCOc1cc(-c2nncn2C)ccc1Nc1ncc2cc(C)nc(NCC(C)(C)C)c2n1.Cc1ccc(S(=O)(=O)O)cc1.Cc1ccc(S(=O)(=O)O)cc1 [ditosylate salt of N2-(2-ethoxy-4-(4-methyl-4H-1,2,4-triazol-3-yl)phenyl)-6-methyl-N8-neopentylpyrido[3,4-d]pyrimidine-2,8-diamine]
Chemical degradation after storage [2]: no evidence of chemical degradation | Hydration following storage [2]: no evidence | Form modification after storage (XRPD) ([2]; FIG. 4): No evidence of form modification | Change in appearance after storage ([2]; loose screw top vials): No change in appearance | Form change post DVS and at the extremes of humidity (XRPD) ([3]; 0% RH and 90% RH, FIG. 8): no evidence of form change | DVS profile ([3]; 0-90% RH, 25° C., Form A, FIG. 7): reversible water uptake over the humidity range and no hysteresis | Water uptake/loss [3, 6]: 2.13% | Water uptake/loss as equivalents of water [3, 6]: about 1.0 equivalents of water | Solubility ([4]; FaSSIF): 14.21 mg/mL | Solubility ([4]; FeSSIF): 1.69 mg/mL | Solubility ([4]; NaCl,0.9%/DMSO/Tween 20): 12.69 mg/mL | Solubility ([4]; PEG300): 2.90 mg/mL | Solubility ([4]; Phosphate buffer): 2.24 mg/mL | Solubility ([4]; SFaGF): 5.72 mg/mL | Solubility ([4]; Sodium chloride 0.9% w/v): 9.58 mg/mL | Solubility ([4]; Water, deionised): 5.85 mg/mL | pH ([4]; Acetate buffer): 4.33 | pH ([4]; FaSSIF): 2.41 | pH ([4]; FeSSIF): 3.05 | pH ([4]; NaCl,0.9%/DMSO/Tween 20): 1.97 | pH ([4]; Phosphate buffer): 2.56 | pH ([4]; SFaGF): 1.40 | pH ([4]; Sodium chloride 0.9% w/v): 2.01 | pH ([4]; Water, deionised): 2.13 | XRPD Observations ([1]; 2-butanone 8 volumes, water 1 volume, 80 ° C.): Form A | XRPD Observations ([1]; 2-propanol 8 volumes, water 1 volume, 80 ° C.): Form A | XRPD Observations ([1]; Acetone 10 volumes, water 2 volumes, 60 ° C.): Form A | XRPD Observations ([1]; Acetonitrile 2 volumes, water 1 volume, 60 ° C.): Form A | XRPD Observations ([1]; Ethanol 2 volumes, water 1 volume, 60 ° C.): Form A | XRPD Observations ([1]; Ethanol 15 volumes, no water, 80 ° C.): Form C | XRPD classification ([5]; equilibration in 1,4-Dioxane): Form A | XRPD classification ([5]; equilibration in 1-Butanol): Form A | XRPD classification ([5]; equilibration in 2-Chlorobutane): Form A | XRPD classification ([5]; equilibration in 2-Methyltetrahydrofuran): Form A | XRPD classification ([5]; equilibration in 2-Propanol): Form A | XRPD classification ([5]; equilibration in 3-Methyl-1-butanol): Form A | XRPD classification ([5]; equilibration in Acetonitrile): Form A | XRPD classification ([5]; equilibration in Chlorobenzene): Form A | XRPD classification ([5]; equilibration in Ethyl acetate): Form A | XRPD classification ([5]; equilibration in Heptane): Form A | XRPD classification ([5]; equilibration in Isopropyl acetate): Form A | XRPD classification ([5]; equilibration in Methanol): Form A | XRPD classification ([5]; equilibration in Methyl isobutyl ketone): Form A | XRPD classification ([5]; equilibration in Methylcyclohexane): Form A | XRPD classification ([5]; equilibration in Nitromethane): Form A | XRPD classification ([5]; equilibration in TBME): Form A | XRPD classification ([5]; equilibration in Toluene): Form A | XRPD classification ([5]; equilibration in Trifluorotoluene): Form A | XRPD classification ([5]; equilibration in Water): Form A | XRPD classification ([5]; equilibration in n-Butyl acetate): Form A | Propensity to exhibit version or polymorphic variance ([5]; summary of the polymorphism studies): remarkable lack of propensity to exhibit version or polymorphic variance
